Here are results for 20 molecules from US20230028658A1, “EXPANDED DOSAGE REGIMENS FOR INTEGRIN INHIBITORS” (Pliant Therapeutics, Inc., priority 2021, published 2023).

In general, IC50 refers to the concentration needed to halve the response being measured.

A value given as a limit tells only on which side of the number the result lay.

The target of this assay is recombinant human integrin αvβ6 (Homo sapiens, UniProt P06756+P18564). The assay can be described thus: Solid phase integrin αvβ6 binding assay. To be noted: read-out: αvβ6 Inhibition IC50 (nM) - range. The procedure: Microplates were coated with recombinant human integrin αvβ6 (2 μg/mL) in PBS (100 μL/well 25° C., overnight). The coating solution was removed, washed with wash buffer (0.05% Tween 20; 0.5 mM MnCl2; in 1×TBS). The plate was blocked with 200 μL/well of Block Buffer (1% BSA; 5% sucrose; 0.5 mM MnCl2; in 1×TBS) at 37° C. for 2 h. Dilutions of testing compounds and recombinant TGFβ1 LAP (0.67 μg/mL) in binding buffer (0.05% BSA; 2.5% sucrose; 0.5 mM MnCl2; in 1×TBS) were added. The plate was incubated for 2 hours at 25° C., washed, and incubated for 1 hour with Biotin-Anti-hLAP. Bound antibody was detected by peroxidase-conjugated streptavidin. The IC50 values for testing compounds were calculated by a four-parameter logistic regression.
recombinant human integrin αvβ6, sequence (P06756 31-992 limits assumed): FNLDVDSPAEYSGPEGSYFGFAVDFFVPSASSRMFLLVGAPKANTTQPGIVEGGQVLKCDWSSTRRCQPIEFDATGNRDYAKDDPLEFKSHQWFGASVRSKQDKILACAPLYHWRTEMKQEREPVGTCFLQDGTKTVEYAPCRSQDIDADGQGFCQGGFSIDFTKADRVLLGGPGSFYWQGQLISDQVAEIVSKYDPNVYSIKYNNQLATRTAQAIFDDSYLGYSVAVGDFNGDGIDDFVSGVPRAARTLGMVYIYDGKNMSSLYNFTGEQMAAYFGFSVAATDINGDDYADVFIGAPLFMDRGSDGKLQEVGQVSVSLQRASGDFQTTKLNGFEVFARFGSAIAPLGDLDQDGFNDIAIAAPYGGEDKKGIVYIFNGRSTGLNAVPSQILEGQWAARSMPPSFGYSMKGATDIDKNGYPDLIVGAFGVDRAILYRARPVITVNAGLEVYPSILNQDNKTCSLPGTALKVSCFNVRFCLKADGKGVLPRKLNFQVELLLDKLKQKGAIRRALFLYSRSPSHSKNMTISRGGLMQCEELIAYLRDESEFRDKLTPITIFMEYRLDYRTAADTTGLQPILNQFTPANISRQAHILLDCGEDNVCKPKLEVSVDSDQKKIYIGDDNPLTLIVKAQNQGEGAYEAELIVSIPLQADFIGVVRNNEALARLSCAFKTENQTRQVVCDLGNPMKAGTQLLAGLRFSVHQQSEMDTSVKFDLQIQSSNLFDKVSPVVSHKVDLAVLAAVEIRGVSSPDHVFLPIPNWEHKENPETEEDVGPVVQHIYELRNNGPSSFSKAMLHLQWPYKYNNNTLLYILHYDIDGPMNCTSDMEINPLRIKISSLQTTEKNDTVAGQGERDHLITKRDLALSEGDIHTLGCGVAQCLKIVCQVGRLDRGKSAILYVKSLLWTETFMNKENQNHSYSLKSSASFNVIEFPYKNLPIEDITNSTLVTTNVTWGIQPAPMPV
recombinant human integrin αvβ6, sequence (P18564 22-707 limits assumed): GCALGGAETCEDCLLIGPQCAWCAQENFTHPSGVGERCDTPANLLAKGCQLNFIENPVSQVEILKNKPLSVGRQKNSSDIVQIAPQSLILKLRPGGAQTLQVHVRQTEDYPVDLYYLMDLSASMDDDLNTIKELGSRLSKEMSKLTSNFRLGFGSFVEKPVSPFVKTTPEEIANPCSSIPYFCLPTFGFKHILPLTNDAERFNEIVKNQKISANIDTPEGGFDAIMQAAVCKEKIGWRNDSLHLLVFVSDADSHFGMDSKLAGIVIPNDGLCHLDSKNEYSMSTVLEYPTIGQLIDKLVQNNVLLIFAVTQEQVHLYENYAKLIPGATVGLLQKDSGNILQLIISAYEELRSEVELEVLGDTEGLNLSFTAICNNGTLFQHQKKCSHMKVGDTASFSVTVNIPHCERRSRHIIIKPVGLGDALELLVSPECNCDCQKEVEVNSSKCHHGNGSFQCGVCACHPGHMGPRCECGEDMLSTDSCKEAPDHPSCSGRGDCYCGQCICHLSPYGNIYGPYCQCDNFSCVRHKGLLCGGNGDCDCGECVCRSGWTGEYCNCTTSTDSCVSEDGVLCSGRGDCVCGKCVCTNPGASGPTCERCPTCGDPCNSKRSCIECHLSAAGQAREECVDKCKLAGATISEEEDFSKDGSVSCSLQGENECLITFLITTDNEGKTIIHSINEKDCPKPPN
The compounds tested were compound samples prepared according to procedures described in the Synthetic Examples section, with the stereochemical purity as indicated in the Examples.
`CO[C@H](C)CN(CCCCc1ccc2c(n1)NCCC2)CC[C@H](Nc1ncc(C#N)cn1)C(=O)O` [Compound 68, (S)-2-((5-cyanopyrimidin-2-yl)amino)-4-(((R)-2-methoxypropyl) (4-(5,6,7,8-tetrahydro-1,8-naphthyridin-2-yl)butyl)amino) butanoic acid]: the half-maximal inhibitory concentration (IC50) was less than 50 nM.
Then `CO[C@@H](C)CN(CCCCc1ccc2c(n1)NCCC2)CC[C@H](Nc1ncnc2ccccc12)C(=O)O` [Compound 25, (S)-4-(((S)-2-methoxypropyl) (4-(5,6,7,8-tetrahydro-1,8-naphthyridin-2-yl)butyl)amino)-2-(quinazolin-4-ylamino) butanoic acid], with less than 50 nM; and `O=C(O)[C@H](CCN(CCCCc1ccc2c(n1)NCCC2)CCC(F)F)Nc1ncnc2ccccc12` [Compound 29, (S)-4-((3,3-difluoropropyl) (4-(5,6,7,8-tetrahydro-1,8-naphthyridin-2-yl)butyl)amino)-2-(quinazolin-4-ylamino) butanoic acid], with less than 50 nM; and `CO[C@H](C)CN(CCCCc1ccc2c(n1)NCCC2)CC[C@H](Nc1cc(-c2ccccc2)ncn1)C(=O)O` [Compound 80, (S)-4-(((R)-2-methoxypropyl) (4-(5,6,7,8-tetrahydro-1,8-naphthyridin-2-yl)butyl)amino)-2-((6-phenylpyrimidin-4-yl)amino) butanoic acid], with less than 50 nM.
In the case of `COCCN(CCCCc1ccc2c(n1)NCCC2)CC[C@H](Nc1cc(-n2cccn2)ncn1)C(=O)O` [Compound 44, (S)-2-((6-(1H-pyrazol-1-yl)pyrimidin-4-yl)amino)-4-((2-methoxyethyl) (4-(5,6,7,8-tetrahydro-1,8-naphthyridin-2-yl)butyl)amino) butanoic acid], the 50% inhibitory concentration (IC50) was less than 50 nM.
For `COC[C@@H](F)CN(CCCCc1ccc2c(n1)NCCC2)CC[C@H](Nc1cc(-c2ccccc2)ncn1)C(=O)O` [Compound 128, (S)-4-(((S)-2-fluoro-3-methoxypropyl) (4-(5,6,7,8-tetrahydro-1,8-naphthyridin-2-yl)butyl)amino)-2-((6-phenylpyrimidin-4-yl)amino) butanoic acid] the value was greater than 1000 nM; for `COCCN(CCCCc1ccc2c(n1)NCCC2)CC[C@H](Nc1nccc2ccccc12)C(=O)O` [Compound 34, (S)-2-(isoquinolin-1-ylamino)-4-((2-methoxyethyl) (4-(5,6,7,8-tetrahydro-1,8-naphthyridin-2-yl)butyl)amino) butanoic acid], greater than 1000 nM; for `Cn1ncc2c(N[C@@H](CCN(CCCF)CCCCc3ccc4c(n3)NCCC4)C(=O)O)ncnc21` [Compound 136, (S)-4-((3-fluoropropyl) (4-(5,6,7,8-tetrahydro-1,8-naphthyridin-2-yl)butyl)amino)-2-((1-methyl-1H-pyrazolo[3,4-d]pyrimidin-4-yl)amino) butanoic acid], less than 50 nM.
On to `Cn1ncc2c(N[C@@H](CCN(CCCCc3ccc4c(n3)NCCC4)CCS(C)(=O)=O)C(=O)O)ncnc21` [Compound 101, (S)-2-((1-methyl-1H-pyrazolo[3,4-d]pyrimidin-4-yl)amino)-4-((2-(methylsulfonyl)ethyl) (4-(5,6,7,8-tetrahydro-1,8-naphthyridin-2-yl)butyl)amino) butanoic acid], for which the IC50 lay in the range of 50 to 250 nM.
Then `Cn1ncc2c(N[C@@H](CCN(CCCCc3ccc4c(n3)NCCC4)CC(F)F)C(=O)O)ncnc21` [Compound 88, (S)-4-((2,2-difluoroethyl) (4-(5,6,7,8-tetrahydro-1,8-naphthyridin-2-yl)butyl)amino)-2-((1-methyl-1H-pyrazolo[3,4-d]pyrimidin-4-yl)amino) butanoic acid], with greater than 1000 nM.
For `O=C(O)[C@H](CCN(CCCCc1ccc2c(n1)NCCC2)C1CC1)Nc1ccncn1` [Compound 2, (S)-4-(cyclopropyl(4-(5,6,7,8-tetrahydro-1,8-naphthyridin-2-yl)butyl)amino)-2-(pyrimidin-4-ylamino) butanoic acid] the value was 250 to 1000 nM; for `COCCN(CCCCc1ccc2c(n1)NCCC2)CC[C@H](Nc1ncnc2cccnc12)C(=O)O` [Compound 16, (S)-4-((2-methoxyethyl) (4-(5,6,7,8-tetrahydro-1,8-naphthyridin-2-yl)butyl)amino)-2-(pyrido[3,2-d]pyrimidin-4-ylamino) butanoic acid], less than 50 nM; for `COC[C@@H](F)CN(CCCCc1ccc2c(n1)NCCC2)CC[C@H](Nc1ccncn1)C(=O)O` [Compound 127, (S)-4-(((S)-2-fluoro-3-methoxypropyl) (4-(5,6,7,8-tetrahydro-1,8-naphthyridin-2-yl)butyl)amino)-2-(pyrimidin-4-ylamino) butanoic acid], 250 to 1000 nM.
Then `O=C(O)[C@H](CCN(CCCCc1ccc2c(n1)NCCC2)CCC(F)F)Nc1ncc(Br)cn1` [Compound 131, (S)-2-((5-bromopyrimidin-2-yl)amino)-4-((3,3-difluoropropyl) (4-(5,6,7,8-tetrahydro-1,8-naphthyridin-2-yl)butyl)amino) butanoic acid], with 50 to 250 nM; and `Cn1ncc2c(N[C@@H](CCN(CCCCc3ccc4c(n3)NCCC4)CCOc3ccccc3)C(=O)O)ncnc21` [Compound 82, (S)-2-((1-methyl-1H-pyrazolo[3,4-d]pyrimidin-4-yl)amino)-4-((2-phenoxyethyl) (4-(5,6,7,8-tetrahydro-1,8-naphthyridin-2-yl)butyl)amino) butanoic acid], with less than 50 nM; and `CO[C@H](C)CN(CCCCc1ccc2c(n1)NCCC2)CC[C@H](Nc1ccncn1)C(=O)O` [Compound 106, (S)-4-(((R)-2-methoxypropyl) (4-(5,6,7,8-tetrahydro-1,8-naphthyridin-2-yl)butyl)amino)-2-(pyrimidin-4-ylamino) butanoic acid], with less than 50 nM.
As to `Cn1ncc2c(N[C@@H](CCN(CCCCc3ccc4c(n3)NCCC4)CCOc3ccc(F)cc3)C(=O)O)ncnc21` [Compound 123, (S)-4-((2-(4-fluorophenoxy)ethyl) (4-(5,6,7,8-tetrahydro-1,8-naphthyridin-2-yl)butyl)amino)-2-((1-methyl-1H-pyrazolo[3,4-d]pyrimidin-4-yl)amino) butanoic acid], the IC50 is less than 50 nM.
Then `O=C(O)[C@H](CCN(CCCCc1ccc2c(n1)NCCC2)CC(F)F)Nc1ncncc1-c1ccccc1` [Compound 119, (S)-4-((2,2-difluoroethyl) (4-(5,6,7,8-tetrahydro-1,8-naphthyridin-2-yl)butyl)amino)-2-((5-phenylpyrimidin-4-yl)amino) butanoic acid], with greater than 1000 nM.
As for `O=C(O)[C@H](CCN(CCCCc1ccc2c(n1)NCCC2)CCOc1ccc(F)cc1)Nc1ncc(C(F)(F)F)cn1` [Compound 139, (S)-4-((2-(4-fluorophenoxy)ethyl) (4-(5,6,7,8-tetrahydro-1,8-naphthyridin-2-yl)butyl)amino)-2-((5-(trifluoromethyl)pyrimidin-2-yl)amino) butanoic acid], the IC50 was less than 50 nM.
For `COC[C@@H](F)CN(CCCCc1ccc2c(n1)NCCC2)CC[C@H](Nc1ncc(C#N)cn1)C(=O)O` [Compound 84, (S)-2-((5-cyanopyrimidin-2-yl)amino)-4-(((S)-2-fluoro-3-methoxypropyl) (4-(5,6,7,8-tetrahydro-1,8-naphthyridin-2-yl)butyl)amino) butanoic acid] the value was 250 to 1000 nM.
